# Reference: patent EP0565593B1, “REDUCING PESTICIDAL INTERACTIONS IN CROPS” (priority 1990, dated 1992)
# Where two headings read alike, the source gives them in different places.
# Key:
# Corn [1] = assay: Greenhouse test Procedure VI: biocide and antidote in furrow, herbicide PPI in cover layer (Examples 43-47, 59-61; Tables 42-46, 58-60); type: in vivo; conditions: Antidote + Biocide No. 1 in furrow
# Summary of the method: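 Corn seed furrows given granular biocide (COUNTER 15G, 1.1 mg a.i./cm row) and antidote (0.37 mg a.i./cm row); herbicide in acetone or acetone/water incorporated into cover-layer soil (PPI). Duplicate pots in greenhouse, subirrigated plus overhead watering; corn injury observed, in some series thirteen days after PPI, against untreated, herbicide and herbicide+biocide controls.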
# Corn [2] = assay: Multi-crop greenhouse test, soil-applied (Examples 65, 66; Tables 64, 65); type: in vivo
# Method: (§1) Tests according to this invention in various crops indicate widespread application of the invention. In Examples 62-66 below are described tests with a variety of herbicides contacted with COUNTER® 15G in the presence and absence of MON-7400 (Antidote No. 12); MON-13900 (No. 1); MON-4660 (No. 16) and flurazole (No. 16). Those tests were conducted according to Procedures IV or V described above and illustrated further in other foregoing examples. Plants used in all tests were, for crops (as abbreviated in parentheses); cotton (COTT); soybean (SOBE); CORN, grain sorghum (GRSO); wheat (WHEA) and RICE, and the weeds giant foxtail (GIFT) and velvetleaf (VELE). The data in the tables below represent averages of two replications.
# (§2) In this test the crops and weeds were planted 1.3 cm deep in 13.7 cm X 27.7 cm pans containing Dupo silt loam soil. The test safeners were applied in acetone solution and COUNTER 15G as dry granules to soil cover layers and incorporated by shaking in a bag. Treated cover layers were placed on seeded pans which were transferred to greenhouse benches and subirrigated. Herbicide was applied POE six (6) days after PPI initiation and observations of plant injury made ten (10) days later; results are shown in Table 61. The herbicide used in this example was BEACON (No. 8).
# (§3) In another test in the several crops and weeds used in this test series, the herbicidal component was MON-12000 (No. 1); the other components were the same. the procedure used in this test was the same as that described in Example 62, modified to use a light overhead irrigation (about 0.32 cm/day) during days 4-7 of the test. Table 64 […]
# Giant foxtail (GIFT) = assay: as above; type: in vivo
# Method: as §1, §2, §3
# RICE = assay: as above; type: in vivo
# Method: as §1, §2, §3
# Corn [3] = tested on: Corn
# [4] = Table 64, Herb. No. 1 0.018 Kg/Ha + Biocide No. 1 8.96 Kg/Ha + Antidote 4.48 Kg/Ha
# [5] = Table 64, Herb. No. 1 0.07 Kg/Ha + Biocide No. 1 8.96 Kg/Ha + Antidote 4.48 Kg/Ha
# [6] = Table 64, Herb. No. 1 0.28 Kg/Ha + Biocide No. 1 8.96 Kg/Ha + Antidote 4.48 Kg/Ha
# [7] = Table 65, Herb. No. 1 0.018 Kg/Ha + Biocide No. 1 8.96 Kg/Ha + Antidote 4.48 Kg/Ha
# [8] = Table 65, Herb. No. 1 0.07 Kg/Ha + Biocide No. 1 8.96 Kg/Ha + Antidote 4.48 Kg/Ha
# [9] = Table 65, Herb. No. 1 0.28 Kg/Ha + Biocide No. 1 8.96 Kg/Ha + Antidote 4.48 Kg/Ha
compound,measurement,setting,value
CC1(C)OC(c2ccco2)CN1C(=O)C(Cl)Cl (stereo not shown) [compound 1],% Inhibition Corn,Corn [1]; Herbicide No. 6 0.14 Kg/Ha PPI,15%
same,% Inhibition Corn,Corn [1]; Herbicide No. 11 0.0044 Kg/Ha PPI,15%
same,% Inhibition Corn,Corn [1]; Herbicide No. 12 0.0044 Kg/Ha PPI,20%
same,% Inhibition Corn,Corn [1]; Herbicide No. 13 0.0011 Kg/Ha PPI,40%
same,% Inhibition Corn,Corn [1]; Herbicide No. 13 0.0022 Kg/Ha PPI,70%
same,% Inhibition Corn,Corn [1]; Herbicide No. 14 0.07 Kg/Ha PPI,10%
same,% Inhibition Corn,"Corn [1]; Herbicide No. 16 0.07 Kg/Ha PPI, 13 days",45%
same,% Inhibition Corn,"Corn [1]; Herbicide No. 17 0.14 Kg/Ha PPI, 13 days",45%
same,% Inhibition Corn,"Corn [1]; Herbicide No. 18 0.04 Kg/Ha PPI, 13 days",10%
same,% Inhibition Corn,"Corn [1]; Herbicide No. 20 1.12 Kg/Ha PPI, 13 days",25%
same,% Inhibition Corn,"Corn [1]; Herbicide No. 22 0.28 Kg/Ha PPI, 13 days",5%
same,% Inhibition Corn,"Corn [1]; Herbicide No. 24 0.14 Kg/Ha PPI, 13 days",25%
same,% Inhibition Corn,"Corn [1]; Herbicide No. 25 0.14 Kg/Ha PPI, 13 days",15%
same,% Inhibition Corn,"Corn [1]; Herbicide No. 26 2.24 Kg/Ha PPI, 13 days",20%
same,% Inhibition Corn,"Corn [1]; Herbicide No. 28 0.04 Kg/Ha PPI, 13 days",20%
same,% Inhibition Corn,Corn [2]; [4],5%
same,% Inhibition Corn,Corn [2]; [5],15%
same,% Inhibition Corn,Corn [2]; [6],10%
same,% Inhibition Corn,Corn [2]; [7],0%
same,% Inhibition Corn,Corn [2]; [8],5%
same,% Inhibition Corn,Corn [2]; [9],20%
same,% Inhibition GIFT,Giant foxtail (GIFT); [4],50%
same,% Inhibition GIFT,Giant foxtail (GIFT); [5],70%
same,% Inhibition GIFT,Giant foxtail (GIFT); [6],85%
same,% Inhibition GIFT,Giant foxtail (GIFT); [7],40%
same,% Inhibition GIFT,Giant foxtail (GIFT); [8],80%
same,% Inhibition GIFT,Giant foxtail (GIFT); [9],95%
same,% Inhibition RICE,RICE; [4],0%
same,% Inhibition RICE,RICE; [5],10%
same,% Inhibition RICE,RICE; [6],25%
same,% Inhibition RICE,RICE; [7],10%
same,% Inhibition RICE,RICE; [8],25%
same,% Inhibition RICE,RICE; [9],95%
same,safener activity,"Corn [3]; ACCENT POE + OP insecticides PPI, Tables 11-14",most active
same,% Inhibition 5 DAP Corn,"Corn [3]; Antidote 4.48 + Biocide No. 1 8.96 Kg/Ha PPI, Herb. No. 8 0.07, 5 DAP, before herbicide application",10%
same,% Inhibition 13 DAP Corn,"Corn [3]; Antidote 4.48 + Biocide No. 1 8.96 Kg/Ha PPI, Herb. No. 8 0.07 POE, 13 DAP",25%
same,% Inhibition Corn,"Corn [3]; Antidote 4.48 + Biocide No. 1 8.96 Kg/Ha PPI, Herbicide No. 7 0.28 POE, 13 days after planting",20%
same,% Inhibition 5 DAP Corn,"Corn [3]; Herb. […], 5 DAP, before herbicide application",0%
same,% Inhibition Corn,"Corn [3]; Table 14: Herbicide No. 7 (ACCENT) 0.84 Kg/Ha POE + Biocide No. 2 8.96 Kg/Ha PPI + antidote 4.48 Kg/Ha PPI, 13 days after planting, 8 days after herbicide",5%
same,% Inhibition Corn,"Corn [3]; […], 13 days after planting, 8 days after herbicide",5%
same,% Inhibition Corn,"Corn [3]; […], observed 9 days later (Table 29)",10%
same,% Inhibition Corn,"Corn [3]; […], observed 9 days later (Table 30)",35%
same,% Inhibition Corn,"Corn [3]; […], observed 10 days after herbicide application",55%
same,% Inhibition 5 DAP Corn,Corn [3]; in vivo,30%
same,% Inhibition 13 DAP Corn,Corn [3]; in vivo,20%
same,activity in reducing corn injury,"Corn [3]; primisulfuron POE + biocides PPI, Tables 8-10",most active
